Experiments:
[1] = test system: AsPC-1 human pancreatic cancer cells; test: Thymidine incorporation proliferation assay in AsPC-1 cells; format: cell-based
Text: This can be seen in FIG. 1A (results using myristoleic acid obtained from Sigma Chemicals (St. Louis, Mo.)) and FIG. 1B (results using myristoleic acid obtained from Matreya, Inc. (State College, Pa.)).
(§1) The results are presented in FIG. 2A (cetyl myristoleic acid) and FIG. 2B (palmitoleic acid).
(§2) The thymidine incorporation experiments described in Example 1 were repeated in triplicate on each of two malignant human pancreatic cancer cell lines, AsPC-1 and PANC-1. The results are set forth in FIG. 3A (AsPC-1) and FIG. 3B (PANC-1).

[2] = test system: AsPC-1 human pancreatic cancer cells; test: Cell morphology during inhibition of proliferation; format: cell-based; conditions: membrane blebbing, cellular rounding, detachment, data not shown
Text: as §1

HPAC xenografts = test: Growth of HPAC xenografts in athymic mice; format: in vivo; conditions: 250 mg/kg/day intraperitoneal
Description: (§3) The effects of daily intraperitoneal injection of myristoleic acid (250 mg/kg/day) on the growth of AsPC-1 and HPAC xenografts in athymic mice were investigated. Animals were injected daily with myristoleic acid (250 mg/kg/day) (labeled “myristoleic acid” in FIG. 6) or with a control solution (labeled “control” in FIG. 6) once visible tumors were established (about five days after implantation). […] The experiment was repeated twice with AsPC-1 cells and also with HPAC cells. The results set forth in FIG. 6 are representative of these experiments.
(§4) Tumor volumes of the above-described athymic mice were measured as a function of time, and the results are presented in FIG. 7A (AsPC-1 cancer cells) and FIG. 7B (HPAC cancer cells).
(§5) At the end of the experiment, the AsPC-1 and HPAC xenografts were harvested from the athymic mice and the weights of the tumors were measured.

AsPC-1 cells [3] = test: TUNEL assay (DNA fragmentation); format: cell-based, human; conditions: 10 μg/ml; 24 hours; versus control
Description: The effect of myristoleic acid (10 μg/ml) (“MA”) on terminal deoxynucleotidyl transferase-mediated dUTP nick end labeling (“TUNEL”) assay at 24 hours in AsPC-1 cells was investigated. The results are presented in FIGS. 5A (control) and 5B (10 μg/ml myristoleic acid). […] The results set forth in FIGS. 5A and 5B are representative of three separate experiments.

AsPC-1 xenografts [4] = test: Growth of AsPC-1 xenografts in athymic mice; format: in vivo; conditions: 250 mg/kg/day intraperitoneal
Description: as §3, §4, §5

AsPC-1 cells [5] = test: Annexin V binding (early apoptosis); format: cell-based, human; conditions: 10 μg/ml; 3 or 5 hours after beginning treatment
Description: The effect of myristoleic acid (10 μg/ml) (“MA”) on annexin V binding in AsPC-1 cells at 3 or 5 hours after beginning treatment is shown in FIG. 4. […] This specific test utilizes the translocation of phophatidyl serine from the inner to outer plasma membrane, which is a feature of early apoptosis. The results set forth in FIG. 4 are representative of three separate experiments.

[6] = test system: PANC-1 human pancreatic cancer cells; test: Thymidine incorporation proliferation assay in PANC-1 cells; format: cell-based
Text: as §2

AsPC-1 xenografts [7] = test: In situ TUNEL assay of harvested xenografts; format: in vivo, athymic mice; conditions: AsPC-1 xenografts harvested at end of experiment; versus vehicle (minimal staining)
Description: To determine whether the effects observed in the athymic mouse experiments described in Example 7 might be due to apoptosis, in situ TUNEL assays were carried out on the AsPC-1 xenografts that were harvested from the athymic mice at the end of the experiment. Images of xenograft sections from mice treated with the control solution (vehicle only) (FIGS. 9A and 9B) show minimal staining.

Compound | inhibition of proliferation as measured by thymidine incorporation ([1]; Example 2) | morphological changes accompanying inhibition of proliferation [2] | tumor size (HPAC xenografts; daily, HPAC xenografts, throughout the experimental period) | tumor weight (HPAC xenografts; HPAC, at the end of the experiment) | tumor volume (HPAC xenografts; HPAC, throughout the experimental period) | anti-proliferative activity, concentration range of effects [1] | inhibition of proliferation as measured by thymidine incorporation ([1]; 24 hours, myristoleic acid from two commercial sources (Sigma, Matreya)) | effects on pancreatic cancer cell proliferation (thymidine incorporation) ([1]; repeated in triplicate) | number of apoptotic cells by TUNEL assay (AsPC-1 cells [3]) | tumor size (AsPC-1 xenografts [4]; daily, AsPC-1 xenografts, throughout the experimental period) | tumor weight (AsPC-1 xenografts [4]; AsPC-1, at the end of the experiment) | tumor volume (AsPC-1 xenografts [4]; AsPC-1, throughout the experimental period) | annexin V binding (AsPC-1 cells [5]) | anti-proliferative activity, concentration range of effects [6] | effects on pancreatic cancer cell proliferation (thymidine incorporation) ([6]; repeated in triplicate) | apoptotic cells in xenograft sections (in situ TUNEL) (AsPC-1 xenografts [7])
CCCCCC/C=C\CCCCCCCC(=O)O [palmitoleic acid] | concentration-dependent inhibition of proliferation | morphological changes associated with apoptosis |  |  |  |  |  |  |  |  |  |  |  |  |  | 
CCCC/C=C\CCCCCCCC(=O)O [myristoleic acid] |  | morphological changes associated with apoptosis | marked reduction in tumor size | marked reduction | marked reduction | low micromolar range | concentration-dependent inhibition of proliferation | concentration-dependent effects | marked increase in the number of apoptotic cells | marked reduction in tumor size | marked reduction | marked reduction | Marked membrane fluorescence | low micromolar range | concentration-dependent effects | many apoptotic cells
CCCC/C=C\CCCCCCCC(=O)OCCCCCCCCCCCCCCCC [cetyl myristoleic acid] | concentration-dependent inhibition of proliferation | morphological changes associated with apoptosis |  |  |  |  |  |  |  |  |  |  |  |  |  | 
